# Assay results as given in PubChem BioAssay (NCI).
# Values joined by “and” are separate entries in the source; they are usually repeats but may differ in a detail not shown here. Equal values may be shown once.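 96-well plates; 48 h exposure; 5 concentrations. Endpoints by linear interpolation between flanking doses. Not reached: highest tested concentration assigned. GI50 marks 50% less growth. Definition used: TGI = concentration required for complete inhibition of growth.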
# Tests used:
# Test in all cases: NCI tumour cell line growth inhibition, 48 h
# CAKI-1 renal = test system: CAKI-1 renal
# NCI/ADR-RES ovarian = test system: NCI/ADR-RES ovarian
# SF-539 CNS = test system: SF-539 CNS
# OVCAR-5 ovarian = test system: OVCAR-5 ovarian
# MOLT-4 leukemia = test system: MOLT-4 leukemia
# NCI-H460 lung = test system: NCI-H460 lung
# U251 CNS = test system: U251 CNS
# MDA-MB-435 = test system: MDA-MB-435
# COLO 205 colon = test system: COLO 205 colon
# DU-145 prostate = test system: DU-145 prostate
Structure (SMILES),TGI (CAKI-1 renal),TGI (NCI/ADR-RES ovarian),TGI (SF-539 CNS),TGI (OVCAR-5 ovarian),TGI (MOLT-4 leukemia),TGI (NCI-H460 lung),TGI (U251 CNS),TGI (MDA-MB-435),TGI (COLO 205 colon),TGI (DU-145 prostate),GI50 (CAKI-1 renal),GI50 (NCI/ADR-RES ovarian),GI50 (SF-539 CNS),GI50 (OVCAR-5 ovarian),GI50 (MOLT-4 leukemia),GI50 (NCI-H460 lung),GI50 (U251 CNS),GI50 (MDA-MB-435),GI50 (DU-145 prostate)
COC1=C(C)C(=O)c2c(c(COC(N)=O)c3n2CC(OC(C)=O)C3OC(C)=O)C1=O (stereo not drawn),< 0.0278 µM,0.979 µM,0.165 µM,0.652 µM,2.03 µM,0.235 µM,0.789 µM,0.415 µM,0.314 µM,0.265 µM,,,,,,,,,
O=c1cc(N2CCCC2)[nH]c(=O)n1-c1ccccc1,> 100 µM,> 100 µM,> 100 µM,> 100 µM,> 100 µM,> 100 µM,> 100 µM,> 100 µM,> 100 µM,> 100 µM,,,,,,,,,
CCOC(=O)c1nnsc1NN,> 100 µM,> 100 µM,> 100 µM,> 100 µM,> 100 µM,> 100 µM,> 100 µM,> 100 µM,> 100 µM,> 100 µM,,,,,,,,,
Cc1c2c(OCC3CCCCO3)nn(C)c(=O)c2c(C)n1-c1ccccc1 (stereo not drawn),59 µM,50.7 µM,37.2 µM,35.9 µM,> 100 µM,30.9 µM,31.2 µM,37.4 µM,33.3 µM,36.9 µM,,,,,,,,,
COC(=O)/C(C#N)=C(/NCCN)Nc1ccccc1,> 100 µM,> 100 µM,> 100 µM,> 100 µM,> 100 µM,> 100 µM,> 100 µM,> 100 µM,> 100 µM,> 100 µM,,,,,,,,,
CC12CCCC3(CC(=O)C(C)(C)C3C(=O)C1)C2 (stereo not drawn),> 100 µM,> 100 µM,,> 100 µM,> 100 µM,> 100 µM,> 100 µM,> 100 µM,> 100 µM,> 100 µM,,,,,,,,,
O=C1NCN(c2ccccc2)C12CCN(CCCN1CCN(CCOC(c3ccc(F)cc3)c3ccc(F)cc3)CC1)CC2,5.07 µM,26.7 µM,3.26 µM,11.4 µM,15.1 µM,4.32 µM,3.45 µM,3.26 µM,3.18 µM,3.34 µM,,,,,,,,,
COC(=O)[C@H](Cc1ccccc1)NC(=O)CCCCCCC(=O)NO,> 100 µM,> 100 µM,> 100 µM,43.9 µM,> 100 µM,86 µM,87.5 µM,63.8 µM,> 100 µM,38.5 µM,,,,,,,,,
C=C1c2nc3ccccc3n2C=C(c2ccc(Cl)cc2)N1c1ccc(OC)cc1,19.1 µM,14 µM,19.2 µM,35 µM,> 100 µM,18.7 µM,25.4 µM,30.5 µM,> 100 µM,61.8 µM,,,,,,,,,
C=C(CN(C)C)C(=O)c1ccccc1[N+](=O)[O-],28.2 µM and 2.88 µM,48.9 µM,71.4 µM and 40.4 µM,29.4 µM and 31.1 µM,26.7 µM and 5.83 µM,59.3 µM and 45.1 µM,54.5 µM and 31.8 µM,29.7 µM and 15.9 µM,21.2 µM,52.3 µM and 28.2 µM,1.55 µM,5.61 µM,18.6 µM,16.3 µM,4.01 µM and 0.606 µM,19.6 µM,17.8 µM,3.86 µM,15 µM
CCCCCCCCCc1nn2c(Cc3ccccc3)nnc2s1,> 100 µM,32.7 µM,33.4 µM,29.6 µM,59.3 µM,39.2 µM,36.6 µM,62 µM,41 µM,51.4 µM,,,,,,,,,
CCOC(=O)C1CCC(=O)N1C(=O)c1ccccc1 (stereo not drawn),> 100 µM,> 100 µM,> 100 µM,> 100 µM,> 100 µM,> 100 µM,> 100 µM,> 100 µM,,> 100 µM,,,,,,,,,
N#Cc1nc(NC(=O)c2ccccc2C(=O)O)c(C#N)[nH]1,> 100 µM,> 100 µM,> 100 µM,> 100 µM,> 100 µM,,> 100 µM,> 100 µM,> 100 µM,> 100 µM,,,,,,,,,
COc1cc(NC(C)=O)ccc1C(=O)NN1C(=O)/C(=C/c2ccco2)N=C1c1ccccc1,> 50 µM,> 50 µM,> 50 µM,> 50 µM,45.6 µM,,,> 50 µM,> 50 µM,> 50 µM,,,,,,,,,
Cc1ccc(C2=CC(=O)/C(=C\C(=O)c3ccc(Cl)cc3)O2)cc1,4.38 µM,49.6 µM,55.1 µM,40.6 µM,> 100 µM,,32 µM,32.2 µM,26.1 µM,87.1 µM,,,,,,,,,
